What all share (format): cell-based
Assay [1] concerns human induced pluripotent stem cells 201B7. Briefly: Proliferation promoting effect of L-tryptophan metabolites in mTeSR1, cell coating rate by IncuCyte, 201B7. The note with it: mTeSR1 medium, final 50, 100, 200, 500, 1000 μM, 0-120 hr. The method, then: L-kynurenine (Sigma-Aldrich Co. LLC: […]) was added at a final concentration of 50, 100, 200, 500, 1000 μM to mTeSR1 medium and the proliferation promoting effect was examined using the prepared medium. Y-27632 was added at a final concentration of 10 μM for 2 days after seeding. As a basement membrane matrix, Matrigel (Japan Becton, Dickinson and Company) was applied on a 6 well plate and 20,000 cells were single cell seeded per well. Two days after the cell seeding, evaluation was performed using the medium free of Y-27632 and prepared as mentioned above. The time of L-kynurenine addition was taken as 0 and the cell coating rate was measured using IncuCyte at 0, 24, 48, 72, 96 and 120 hr later. […] Kynurenic acid (Sigma-Aldrich Co. LLC: […]) was added at a final concentration of 50, 100, 200, 500, 1000 μM to mTeSR1 medium and the proliferation promoting effect was examined using the prepared medium. Y-27632 was added at a final concentration of 10 μM for 2 days after seeding. As a basement membrane matrix, Matrigel (Japan Becton, Dickinson and Company) was applied on a 6 well plate and 20,000 cells were single cell seeded per well. […] The time of kynurenic acid addition was taken as 0 and the cell coating rate was measured using IncuCyte at 0, 24, 48, 72, 96 and 120 hr later.

For assay [2] the test system is unchanged. Put plainly: Proliferation promoting effect of L-tryptophan, cell coating rate by IncuCyte, 201B7. Conditions: final 44-1408 μM, 24-120 hr after addition. The method, then:
First, the proliferation promoting effect of L-tryptophan on induced pluripotent stem cells (iPS cells) was evaluated using 3 kinds of commercially available media. As the human iPS cell, 201B7 strain purchased from iPS Academia Japan, Inc. was used and cultured under the conditions of 5% CO2/37° C.
L-tryptophan (Sigma-Aldrich Co. LLC: T8941) was added to the media of Essential-8 (Life Technologies Inc.: A1517001), mTeSR1 (STEM CELL Technologies Inc.: 05850), TeSR2 (STEM CELL Technologies Inc.: 05860) at a given concentration, used for culture and the effect thereof was examined.
(§1) L-tryptophan (Sigma-Aldrich Co. LLC: T8941) was added at a final concentration of 44, 176, 352, 704, 1408 μM to Essential-8, mTeSR1, TeSR2 media and the proliferation promoting effect of L-tryptophan was examined using the prepared media. A 6 well plate coated with Matrigel (Japan Becton, Dickinson and Company) as a basement membrane matrix was prepared and 13,000 cells were single cell seeded per well. The next day of cell seeding, evaluation was performed using the medium prepared as mentioned above. The culture period was set to 6 days, the time of L-tryptophan addition was set to 0 and the cell coating rate was measured using IncuCyte at 24, 48, 72, 96 and 120 hr later. As the medium to be used when seeding, a medium without addition of Y-27632 at a final concentration of 10 μM was used and culturing was performed.

Assay [3] concerns human induced pluripotent stem cells 253G4. Put plainly: Proliferation promoting effect of L-tryptophan, cell coating rate by IncuCyte, 253G4. Conditions: mTeSR1 medium, final 44-1408 μM, 24-120 hr. How it is done:
(§2) Then, the proliferation promoting effect of L-tryptophan was evaluated using other strain 253G4 of human induced pluripotent stem cell (iPS cell) and human embryonic stem cell H9 strain. As the medium, mTeSR1 (STEM CELL Technologies Inc.: 05850) was used and culturing was performed under 5% CO2/37° C. conditions.
(§3) L-tryptophan (Sigma-Aldrich Co. LLC: T8941) was added to mTeSR1 medium (STEM CELL Technologies Inc.: 05850) at a given concentration, used for culture and the effect thereof was examined.
as §1, with “to mTeSR1 medium” for “to Essential-8, mTeSR1, TeSR2 media”, “prepared medium.” for “prepared media.”, “and 40,000 253G4 cells and 10,000 H9” for “and 13,000”, “performed by replacing the medium with” for “performed using”

The subject of assay [4] is human embryonic stem cells H9. Put plainly: Proliferation promoting effect of L-tryptophan, cell coating rate by IncuCyte, H9. The note with it: mTeSR1 medium, final 44-1408 μM, 24-120 hr. How it is done:
as §2, §3
as §1, with “to mTeSR1 medium” for “to Essential-8, mTeSR1, TeSR2 media”, “prepared medium.” for “prepared media.”, “and 40,000 253G4 cells and 10,000 H9” for “and 13,000”, “performed by replacing the medium with” for “performed using”

In assay [5] the test system is human embryonic kidney cell line HEK293T cells. Put plainly: Proliferation promoting effect of L-tryptophan, cell coating rate by IncuCyte, HEK293T. The note with it: 293T; DMEM with 10% fetal bovine serum; final 44-1408 μM; 24-120 hr. The method, then:
Next, the proliferation promoting effect of L-tryptophan was evaluated using human embryonic kidney cell line HEK293T cells. As the medium, DMEM medium (Thermo Fisher Scientific K. K.: 11965) added with 10% fetal bovine serum was used and culturing was performed under 5% CO2/37° C. conditions.
L-tryptophan (Sigma-Aldrich Co. LLC: T8941) was added at a given concentration to DMEM medium (Thermo Fisher Scientific K.K.: 11965) added with 10% fetal bovine serum, used for culture and the effect thereof was examined.
L-tryptophan (Sigma-Aldrich Co. LLC: T8941) was added at a final concentration of 44, 176, 352, 704, 1408 μM to DMEM medium (Thermo Fisher Scientific K.K.: 11965) added with 10% fetal bovine serum and the proliferation promoting effect of L-tryptophan was examined using the prepared medium. A 6 well plate was prepared and 10,000 cells were single cell seeded per well. The next day of cell seeding, evaluation was performed by replacing the medium with the medium prepared as mentioned above. The culture period was set to 6 days, the time of L-tryptophan addition was set to 0 and the cell coating rate was measured using IncuCyte at 24, 48, 72, 96 and 120 hr later.

Assay [6] concerns human iPS cell 201B7 strain. Briefly: Expression of undifferentiated marker after addition of high concentration of L-tryptophan. Conditions: data not shown.

The structures appear in SMILES notation. “Also recorded” adds a separate entry of the source.

In the case of `Nc1ccccc1C(=O)C[C@H](N)C(=O)O` [L-kynurenine], in assay [1], the “cell coating rate (proliferation promoting effect)” value (“cell coating rate” below) is “showed a cell proliferation promoting effect in the L-kynurenine 50-500 μM addition group”.

As to `NC(Cc1c[nH]c2ccccc12)C(=O)O` [L-tryptophan, 2-amino-3-(indolyl)propionic acid], the “cell coating rate” value is “showed a proliferation promoting effect in an L-tryptophan concentration dependent manner; also recorded: showed an L-tryptophan concentration-dependent effect of promoting proliferation” in assay [2] (Essential-8 medium); “showed a proliferation promoting effect in an L-tryptophan concentration dependent manner; also recorded: showed an L-tryptophan concentration-dependent effect of promoting proliferation” in assay [2] (TeSR2 medium); “showed a proliferation promoting effect in an L-tryptophan concentration dependent manner; also recorded: showed an L-tryptophan concentration-dependent effect of promoting proliferation” in assay [2] (mTeSR1 medium); “concentration-dependent proliferation promoting effect of L-tryptophan was also confirmed; also recorded: showed an L-tryptophan concentration-dependent effect of promoting proliferation” in assay [3]; “concentration-dependent proliferation promoting effect of L-tryptophan was also confirmed; also recorded: showed an L-tryptophan concentration-dependent effect of promoting proliferation” in assay [4]; “concentration-dependent proliferation promoting effect of L-tryptophan was not confirmed; also recorded: did not show an L-tryptophan concentration-dependent effect of promoting proliferation” in assay [5]. Moreover, the “expression of undifferentiated marker (OCT, Nanog, alkaline phosphatase)” value in assay [6] was “not influenced”.

Regarding `O=C(O)c1cc(=O)c2ccccc2[nH]1` [kynurenic acid], in assay [1], the “cell coating rate” value is reported as “showed a cell proliferation promoting effect in the kynurenic acid 50-500 μM addition group”.

(Values after patent US20250270512A1, “ADDITIVE FOR UNDIFFERENTIATION MAINTAINING MEDIUM” (AJINOMOTO CO., INC., priority 2017, published 2025).)
